Data as given in ChEMBL document CHEMBL5726691, “Carboxylic acid compound, method for preparation thereof, and use thereof” (2018).

Target: T1, Solute carrier family 22 member 12 (Homo sapiens, UniProt Q96S37)
T1 sequence (Q96S37 whole entry): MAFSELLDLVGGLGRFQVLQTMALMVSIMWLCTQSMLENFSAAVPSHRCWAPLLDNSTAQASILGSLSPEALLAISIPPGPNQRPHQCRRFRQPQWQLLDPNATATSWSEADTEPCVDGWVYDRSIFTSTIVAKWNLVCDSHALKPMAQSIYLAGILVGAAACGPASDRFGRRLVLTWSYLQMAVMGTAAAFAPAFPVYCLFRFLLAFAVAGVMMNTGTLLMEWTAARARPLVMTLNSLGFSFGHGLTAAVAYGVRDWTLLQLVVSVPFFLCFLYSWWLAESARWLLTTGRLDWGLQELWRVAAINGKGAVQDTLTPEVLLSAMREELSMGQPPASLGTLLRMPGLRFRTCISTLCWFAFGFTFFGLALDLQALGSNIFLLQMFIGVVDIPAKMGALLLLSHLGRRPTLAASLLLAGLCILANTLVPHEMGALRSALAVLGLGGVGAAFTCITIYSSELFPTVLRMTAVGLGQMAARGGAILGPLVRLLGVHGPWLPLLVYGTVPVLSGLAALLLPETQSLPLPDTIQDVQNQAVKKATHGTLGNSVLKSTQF
Test: 150 microliter of cell lysate (100 mM of NaOH) was added in each well. Cell plate was placed on a vibrating plate and vibrated for 10 min at a speed of 600 rpm such that the cells were completely lysed. The cell plate was put in a centrifuge and spun for 5 min at a speed of 1000 rpm, then 45 microliter of supernatant was sucked out from each well and transferred to 96-well plate (Isoplate-96 Microplate from PerkinElmer).

## N#Cc1ccc(-c2ccccc2S(=O)(=O)CC2(CC(=O)O)CC2)cc1
  IC50: > 1000 nM
